For one test, the target named is T1, MEK1 activated ERK1 (Homo sapiens, UniProt P27361).
T1 construct: purchased Millipore (Billerica, Mass.) 14-439-K
The test can be described thus: Omnia continuous-read kinase assay for potency against MEK1 activated ERK1. The class given is biochemical. Put shortly:
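Apparent IC50 came from initial reaction slopes (RFU vs time) plotted against log inhibitor with a variable-slope fit. Reactions were started with ERK1 (4 nM final) added to 50 μM ATP, roughly at its appKM, and 10 μM Sox-conjugated ST17 peptide in 20 mM Tris pH 7.5, 5 mM MgCl2. Fluorescence was monitored every 71 seconds.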

Another test addresses T2, Erk1 (Homo sapiens, UniProt P27361).
T2 construct: purchased Millipore 14-439
Description: Protein Mass Modification Assay (intact protein MALDI, 60 min, 10-fold excess of compound). It counts as binding. Put shortly: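 Human Erk1 was incubated 60 min at room temperature with a 10-fold molar excess of compound, then analysed as intact protein by MALDI with sinapinic acid matrix. The centroid mass shift versus untreated protein was divided by compound molecular weight to give percent modified protein.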

Test [1] deals with ERK1/2 phosphorylation of p90RSK in HCT116 cells. Description: Detection of total and phospho-RSK by MSD ELISA (HCT116). The class given is cell-based. The settings on record: Homo sapiens, HCT-116, read-out: ERK1/ERK2 PRSK HCT116 EC50. The essentials:
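HCT116 cells treated with compound in RPMI/10% FBS for 2 h at 37° C, then lysed. Phospho-RSK (Ser380) and total RSK in lysates measured by MSD sandwich electrochemiluminescence ELISA as a readout of ERK1/2 activity.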

Setting [2] is: MEK1 activated ERK1, ATP at KM, read-out: ERK1 Omnia WT ATP KM IC50.

Where two headings read alike, the source gives them in different places. A value given as a limit tells only on which side of the number the result lay.

T2 sequence (P27361 whole entry): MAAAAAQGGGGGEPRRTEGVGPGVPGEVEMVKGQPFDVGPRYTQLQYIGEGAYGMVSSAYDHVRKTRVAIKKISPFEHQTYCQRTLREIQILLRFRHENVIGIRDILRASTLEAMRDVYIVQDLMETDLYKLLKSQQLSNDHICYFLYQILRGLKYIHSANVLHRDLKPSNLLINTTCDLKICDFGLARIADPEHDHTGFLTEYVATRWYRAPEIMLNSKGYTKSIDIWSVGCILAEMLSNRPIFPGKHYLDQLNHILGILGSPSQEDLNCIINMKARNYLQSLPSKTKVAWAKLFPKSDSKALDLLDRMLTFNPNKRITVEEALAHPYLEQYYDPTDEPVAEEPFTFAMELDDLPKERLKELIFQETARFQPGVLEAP
T1 sequence (P27361 whole entry): as above

For `C=CC(=O)Nc1cc(C)ccc1Nc1nc(Nc2cc(OC)nc(OC)c2)ncc1C(F)(F)F` [Compound I-96], the half-maximal inhibitory concentration (IC50) at MEK1 activated ERK1 (setting [2]) fell in the range of 0.101 to 0.5 µM. The “ERK1 Mass Mod (%)” value at Erk1 was “E (key: E: a mass modification of ≧70%; F: a mass modification of 31-69%; G: a mass modification ≦30%)”.
As to `C=CC(=O)Nc1cc(CN2CCN(C(=O)c3cccnc3)CC2)ccc1Nc1nc(Nc2nc(OC)ncc2C)ncc1C(F)(F)F` [Compound I-392, N-(2-((2-((2-methoxy-5-methylpyrimidin-4-yl)amino)-5-(trifluoromethyl)pyrimidin-4-yl)amino)-5-((4-nicotinoylpiperazin-1-yl)methyl)phenyl)acrylamide], at MEK1 activated ERK1 (ATP at KM, WT), the IC50 was in the range of 0.101 to 0.5 µM. Moreover, the EC50 in test [1] is over 1 µM. Also, on Erk1, the “ERK1 Mass Mod (%)” value is reported as “E (a mass modification of ≧70%)”.
For `C=CC(=O)Nc1cc(CCC(N)=O)ccc1Nc1nc(Nc2cc(OC)ncc2C)ncc1C(F)(F)F` [Compound I-400, N-(5-(3-amino-3-oxopropyl)-2-((2-((2-methoxy-5-methylpyridin-4-yl)amino)-5-(trifluoromethyl)pyrimidin-4-yl)amino)phenyl)acrylamide], the IC50 on MEK1 activated ERK1 (ATP at KM, WT) is under 0.1 µM. In test [1], the EC50 is under 0.1 µM. Besides, at Erk1, the “ERK1 Mass Mod (%)” value is “E (a mass modification of ≧70%)”.
With `C=CC(=O)Nc1cc(C)ccc1Nc1nc(Nc2ccc3ocnc3c2)ncc1C(F)(F)F` [Compound I-375, N-(2-((2-(benzo[d]oxazol-5-ylamino)-5-(trifluoromethyl)pyrimidin-4-yl)amino)-5-methylphenyl)acrylamide], the IC50 on MEK1 activated ERK1 (ATP at KM, WT) was over 1 µM. Moreover, the EC50 in test [1] was over 1 µM. The “ERK1 Mass Mod (%)” value on Erk1 was “E (a mass modification of ≧70%)”.
Turning to `C=CC(=O)Nc1cc(C)c(C#N)cc1Nc1nc(NC2CCOCC2)ncc1C(F)(F)F` [Compound I-397, N-(4-cyano-5-methyl-2-((2-((tetrahydro-2H-pyran-4-yl)amino)-5-(trifluoromethyl)pyrimidin-4-yl)amino)phenyl)acrylamide], at MEK1 activated ERK1 (ATP at KM, WT), the concentration for half-maximal inhibition (IC50) was over 1 µM. Moreover, the EC50 in test [1] is over 1 µM. Besides, the “ERK1 Mass Mod (%)” value at Erk1 was “F (a mass modification of 31-69%)”.
For `C=CC(=O)Nc1cc(C)c(F)cc1Nc1nc(Nc2nc(OC)ncc2C)ncc1C(F)(F)F` [Compound I-377, N-(4-fluoro-2-((2-((2-methoxy-5-methylpyrimidin-4-yl)amino)-5-(trifluoromethyl)pyrimidin-4-yl)amino)-5-methylphenyl)acrylamide], the IC50 at MEK1 activated ERK1 (ATP at KM, WT) was under 0.1 µM. Further, the EC50 in test [1] was under 0.1 µM. For the same compound, the “ERK1 Mass Mod (%)” value on Erk1 is listed as “E (a mass modification of ≧70%)”.
`C=CC(=O)Nc1cc(C)ccc1Nc1nc(Nc2cc(OCC)ncc2C)ncc1C(F)(F)F` [Compound I-358, N-(2-((2-((2-ethoxy-5-methylpyridin-4-yl)amino)-5-(trifluoromethyl)pyrimidin-4-yl)amino)-5-methylphenyl)acrylamide]: the IC50 on MEK1 activated ERK1 (ATP at KM, WT) lay in the range of 0.101 to 0.5 µM. Further, the EC50 in test [1] was 0.501 to 0.999 µM. Besides, the “ERK1 Mass Mod (%)” value on Erk1 is given as “E (a mass modification of ≧70%)”.
With `C=CC(=O)Nc1ccccc1Nc1nc(Nc2cc(OC)ncc2C)ncc1C(F)(F)F` [Compound I-85, N-(2-((2-((2-Methoxy-5-methylpyridin-4-yl)amino)-5-(trifluoromethyl)pyrimidin-4-yl)amino)phenyl)acrylamide], the IC50 on MEK1 activated ERK1 (setting [2]) was under 0.1 µM. Besides, in test [1], the EC50 was under 0.1 µM. Also, the “ERK1 Mass Mod (%)” value at Erk1 is on record as “E (a mass modification of ≧70%)”.
As for `C=CC(=O)Nc1cc(C)ccc1Nc1nc(Nc2nc(OC)ccc2Cl)ncc1C(F)(F)F` [Compound I-360, N-(2-((2-((3-chloro-6-methoxypyridin-2-yl)amino)-5-(trifluoromethyl)pyrimidin-4-yl)amino)-5-methylphenyl)acrylamide], the EC50 in test [1] lay in the range of 0.501 to 0.999 µM. Moreover, the “ERK1 Mass Mod (%)” value on Erk1 is given as “E (a mass modification of ≧70%)”.
As to `C=CC(=O)Nc1cc(C)c(F)cc1Nc1nc(Nc2cc(OC)ncc2C)ncc1C(F)(F)F` [Compound I-366, N-(4-fluoro-2-((2-((2-methoxy-5-methylpyridin-4-yl)amino)-5-(trifluoromethyl)pyrimidin-4-yl)amino)-5-methylphenyl)acrylamide], the IC50 at MEK1 activated ERK1 (ATP at KM, WT) was over 1 µM. For the same compound, the EC50 in test [1] was over 1 µM. Further, the “ERK1 Mass Mod (%)” value on Erk1 is on record as “E (a mass modification of ≧70%)”.
`C=CC(=O)Nc1cc(CN2CCN(C)CC2)ccc1Nc1nc(Nc2nc(OC)ncc2C)ncc1C(F)(F)F` [Compound I-394, N-(2-((2-((2-methoxy-5-methylpyrimidin-4-yl)amino)-5-(trifluoromethyl)pyrimidin-4-yl)amino)-5-((4-methylpiperazin-1-yl)methyl)phenyl)acrylamide]: on MEK1 activated ERK1 (ATP at KM, WT), the concentration for half-maximal inhibition (IC50) lay in the range of 0.101 to 0.5 µM. The EC50 in test [1] is 0.501 to 0.999 µM. In addition, at Erk1, the “ERK1 Mass Mod (%)” value was “E (a mass modification of ≧70%)”.
The matching figures for `C=CC(=O)Nc1cc(C)ccc1Nc1nc(Nc2cc(OCCO)ncc2C)ncc1C(F)(F)F` [Compound I-376, N-(2-((2-((2-(2-hydroxyethoxy)-5-methylpyridin-4-yl)amino)-5-(trifluoromethyl)pyrimidin-4-yl)amino)-5-methylphenyl)acrylamide]: 0.101 to 0.5 µM, under 0.1 µM and “E (a mass modification of ≧70%)”.
For the compound `C=CC(=O)Nc1cc(C)ccc1Nc1nc(Nc2cc(-c3nc[nH]n3)ccc2C)ncc1C(F)(F)F` [Compound I-373, N-(5-methyl-2-((2-((2-methyl-5-(1H-1,2,4-triazol-3-yl)phenyl)amino)-5-(trifluoromethyl)pyrimidin-4-yl)amino)phenyl)acrylamide], the IC50 at MEK1 activated ERK1 (ATP at KM, WT) was over 1 µM. For the same compound, the EC50 in test [1] lay within 0.501 to 0.999 µM. The “ERK1 Mass Mod (%)” value at Erk1 is given as “F (a mass modification of 31-69%)”.
On the same counts, the results for `C=CC(=O)Nc1cc(CN2CCN(C(=O)c3cnccn3)CC2)ccc1Nc1nc(Nc2cc(OC)ncc2C)ncc1C(F)(F)F` [Compound I-390, N-(2-((2-((2-methoxy-5-methylpyridin-4-yl)amino)-5-(trifluoromethyl)pyrimidin-4-yl)amino)-5-((4-(pyrazine-2-carbonyl)piperazin-1-yl)methyl)phenyl)acrylamide] are under 0.1 µM, under 0.1 µM and “E (a mass modification of ≧70%)”.
The matching figures for `C=CC(=O)Nc1cc(C)ccc1Nc1nc(Nc2nc(OC)ncc2F)ncc1C(F)(F)F` [Compound I-357, N-(2-((2-((5-fluoro-2-methoxypyrimidin-4-yl)amino)-5-(trifluoromethyl)pyrimidin-4-yl)amino)-5-methylphenyl)acrylamide]: 0.101 to 0.5 µM, 0.101 to 0.5 µM and “E (a mass modification of ≧70%)”.
Regarding `C=CC(=O)Nc1cc(CN2CCN(S(C)(=O)=O)CC2)ccc1Nc1nc(Nc2cc(OC)ncc2C)ncc1C(F)(F)F` [Compound I-384, N-(2-((2-((2-methoxy-5-methylpyridin-4-yl)amino)-5-(trifluoromethyl)pyrimidin-4-yl)amino)-5-((4-(methylsulfonyl)piperazin-1-yl)methyl)phenyl)acrylamide], the IC50 at MEK1 activated ERK1 (ATP at KM, WT) is under 0.1 µM. The EC50 in test [1] was under 0.1 µM. Moreover, the “ERK1 Mass Mod (%)” value on Erk1 is reported as “E (a mass modification of ≧70%)”.
Turning to `C=CC(=O)Nc1cc(OCC(N)=O)ccc1Nc1nc(Nc2cc(OC)ncc2C)ncc1C(F)(F)F` [Compound I-398, N-(5-(2-amino-2-oxoethoxy)-2-((2-((2-methoxy-5-methylpyridin-4-yl)amino)-5-(trifluoromethyl)pyrimidin-4-yl)amino)phenyl)acrylamide], the IC50 on MEK1 activated ERK1 (ATP at KM, WT) is under 0.1 µM. For the same compound, the EC50 in test [1] is under 0.1 µM. Besides, at Erk1, the “ERK1 Mass Mod (%)” value is given as “E (a mass modification of ≧70%)”.
With `C=CC(=O)Nc1cc(C)ccc1Nc1nc(Nc2cc(C(C)=O)ccc2C)ncc1C(F)(F)F` [Compound I-84, N-(2-((2-((5-Acetyl-2-methylphenyl)amino)-5-(trifluoromethyl)pyrimidin-4-yl)amino)-5-methylphenyl)acrylamide], on MEK1 activated ERK1 (setting [2]), the IC50 is 0.101 to 0.5 µM. On Erk1, the “ERK1 Mass Mod (%)” value is on record as “E (key: E: a mass modification of ≧70%; F: a mass modification of 31-69%; G: a mass modification ≦30%)”.
`C=CC(=O)Nc1cc(C)ccc1Nc1nc(Nc2nc(O)ncc2C)ncc1C(F)(F)F` [Compound I-364, N-(2-((2-((2-hydroxy-5-methylpyrimidin-4-yl)amino)-5-(trifluoromethyl)pyrimidin-4-yl)amino)-5-methylphenyl)acrylamide]: the EC50 in test [1] was in the range of 0.101 to 0.5 µM. For the same compound, on Erk1, the “ERK1 Mass Mod (%)” value is reported as “E (a mass modification of ≧70%)”.
Take `C=CC(=O)Nc1cc(C)ccc1Nc1nc(Nc2nc(OC)ncc2Cl)ncc1C(F)(F)F` [Compound I-344, N-(2-((2-((5-chloro-2-methoxypyrimidin-4-yl)amino)-5-(trifluoromethyl)pyrimidin-4-yl)amino)-5-methylphenyl)acrylamide]: the EC50 in test [1] lay within 0.101 to 0.5 µM. For the same compound, the “ERK1 Mass Mod (%)” value at Erk1 is “E (a mass modification of ≧70%)”.
On the same counts, the results for `C=CC(=O)Nc1cc(C)ccc1Nc1nc(Nc2cc(OC)cnc2Cl)ncc1C(F)(F)F` [Compound I-361, N-(2-((2-((2-chloro-5-methoxypyridin-3-yl)amino)-5-(trifluoromethyl)pyrimidin-4-yl)amino)-5-methylphenyl)acrylamide] are 0.101 to 0.5 µM and “E (a mass modification of ≧70%)”.
